From patent publication US20240423995A1, “C-KIT INHIBITORS AND USES FOR TREATING AND PREVENTING INFLAMMATORY CONDITIONS” (GEORGETOWN UNIVERSITY, priority 2023, published 2024)

Legend:
KIT (V559D) = target: T1, KIT (V559D) (Homo sapiens, UniProt P10721, V559D); assay: KINOMEscan competition binding screen, KIT (V559D); conditions: for remaining binding at 10 µM: read-out: % Ctrl @ 10 μM
T1 construct: purchased Eurofins DiscoverX Corporation
Method: The KINOMEscan™ screening platform (Eurofins DiscoverX Corporation, San Diego, USA) was performed using an active site-directed competition binding assay to quantitatively measure interactions between BK40143, BK40197, BK40195, and BK40196 and more than 450 human kinases and disease relevant mutant variants. […] Screening “hits” were identified by measuring the amount of kinase captured in test (BK40143, BK40197, BK40195, and BK40196) versus control samples by using a quantitative and ultra-sensitive qPCR method that detects the associated DNA label. BK40143, BK40197, BK40195, and BK40196 were screened at 10 μM concentration, and results for primary screen binding interactions were reported as ‘% Ctrl’ (POC), where lower numbers indicate stronger hits and calculated as follows:
[formula] • test compound=BK40143 or BK40197 or BK40195 or BK40196 • negative control=DMSO (100% Ctrl) • positive control=control compound (0% Ctrl)
Based on screening data of profiled compounds, a proportional relationship between primary screening results and corresponding compound/target affinities can be described as binding constants (Kd values) for the indicated ranges of percent of control (PoC) values, with tighter binding (higher affinity) interactions associated with lower PoC values, and weaker binding (lower affinity) associated with higher PoC values. Briefly, kinase-tagged T7 phage strains were grown in parallel in 24-well blocks in an E. coli host derived from the BL21 strain. E. coli were grown to log-phase and infected with T7 phage from a frozen stock (multiplicity of infection=0.4) and incubated with shaking at 32° C. until lysis (90-150 minutes). The lysates were centrifuged (6,000×g) and filtered ([…]) to remove cell debris. The remaining kinases were produced in HEK-293 cells and subsequently tagged with DNA for qPCR detection. Streptavidin-coated magnetic beads were treated with biotinylated small molecule ligands for 30 minutes at room temperature to generate affinity resins for kinase assays. The liganded beads were blocked with excess biotin and washed with blocking buffer (SeaBlock (Pierce), 1% BSA, 0.05% Tween 20, 1 mM DTT) to remove unbound ligand and to reduce non-specific phage binding. Binding reactions were assembled by combining kinases, liganded affinity beads, and test compounds in 1× binding buffer (20% SeaBlock, 0.17×PBS, 0.05% Tween 20, 6 mM DTT). Test compounds were prepared as 100× stocks in 100% DMSO and directly diluted into the assay. All reactions were performed in polypropylene 384-well plates in a final volume of 0.02 ml. The assay plates were incubated at room temperature with shaking for 1 hour and the affinity beads were washed with wash buffer (1×PBS, 0.05% Tween 20). The beads were then re-suspended in elution buffer (1×PBS, 0.05% Tween 20, 0.5 μM non-biotinylated affinity ligand) and incubated at room temperature with shaking for 30 minutes. The kinase concentration in the eluates was measured by qPCR.

mast cells (blood) = assay: MC maturation in blood of transgenic APP mice by flow cytometry; type: in vivo; conditions: six weeks, vs DMSO
Method: 12-month-old transgenic APP mice were injected intraperitoneally with either 5 mg/kg BK40143 or DMSO for six weeks before whole-blood samples were collected into tubes with 1000 U/mL heparin. Blood samples were then treated with the three flow-conjugated antibodies and analyzed for maturation of mast cell progenitors to mature mast cells, as described in Examples 3 and 4. Group differences were compared using an unpaired Student's t-test.
(§1) 12-month-old transgenic APP mice were injected intraperitoneally with either 25 mg/kg BK40195 or DMSO for six weeks before having whole-blood samples collected into tubes containing 1000 U/mL heparin. Blood samples were then treated with the three flow-conjugated antibodies and analyzed for maturation of mast cell progenitors to mature mast cells, as described in Example 5. Differences were compared using an unpaired Student's t-test.
as §1, with “45” for “25”, “BK40197” for “BK40195”

mast cells (spleen) = assay: MC maturation in the spleen of transgenic APP mice by flow cytometry; type: in vivo; conditions: 20 and 40 mg/kg intraperitoneal, six weeks, vs DMSO
Method: The studies in this example compared the number of immature MCs to the number of mature MCs in the spleen.
as §1, with “20” for “either 25”, “BK40196, 40 mg/kg BK40196,” for “BK40195”, “spleens” for “whole-blood samples”, “for analysis. Spleen” for “into tubes containing 1000 U/mL heparin. Blood”

peripheral mast cells = assay: Mature peripheral mast cells in blood of wild-type C57BL/6 mice by flow cytometry; type: in vivo; conditions: 50 mg/kg per day intraperitoneal for five days, p=0.06
Method: (§2) Wild-type C57BL/6 mice were dosed with BK40197 via intraperitoneal injection at 50 mg/kg (maximum tolerated dose) per day for five days before blood samples were taken and peripheral mast cells were isolated via flow cytometry. Cell gating was performed using antibodies against specific epitopes for cells: CD45 antibody for leukocytes, FceR1 antibody for mature mast cells, and CD117 antibody for immature and mature mast cells.

[1] = Maximum tolerated dose in wild-type C57BL/6 mice; conditions: mouse, in vivo, ip, intraperitoneal injection, per day
Method: as §2

T1 sequence (P10721 26-976 V559D): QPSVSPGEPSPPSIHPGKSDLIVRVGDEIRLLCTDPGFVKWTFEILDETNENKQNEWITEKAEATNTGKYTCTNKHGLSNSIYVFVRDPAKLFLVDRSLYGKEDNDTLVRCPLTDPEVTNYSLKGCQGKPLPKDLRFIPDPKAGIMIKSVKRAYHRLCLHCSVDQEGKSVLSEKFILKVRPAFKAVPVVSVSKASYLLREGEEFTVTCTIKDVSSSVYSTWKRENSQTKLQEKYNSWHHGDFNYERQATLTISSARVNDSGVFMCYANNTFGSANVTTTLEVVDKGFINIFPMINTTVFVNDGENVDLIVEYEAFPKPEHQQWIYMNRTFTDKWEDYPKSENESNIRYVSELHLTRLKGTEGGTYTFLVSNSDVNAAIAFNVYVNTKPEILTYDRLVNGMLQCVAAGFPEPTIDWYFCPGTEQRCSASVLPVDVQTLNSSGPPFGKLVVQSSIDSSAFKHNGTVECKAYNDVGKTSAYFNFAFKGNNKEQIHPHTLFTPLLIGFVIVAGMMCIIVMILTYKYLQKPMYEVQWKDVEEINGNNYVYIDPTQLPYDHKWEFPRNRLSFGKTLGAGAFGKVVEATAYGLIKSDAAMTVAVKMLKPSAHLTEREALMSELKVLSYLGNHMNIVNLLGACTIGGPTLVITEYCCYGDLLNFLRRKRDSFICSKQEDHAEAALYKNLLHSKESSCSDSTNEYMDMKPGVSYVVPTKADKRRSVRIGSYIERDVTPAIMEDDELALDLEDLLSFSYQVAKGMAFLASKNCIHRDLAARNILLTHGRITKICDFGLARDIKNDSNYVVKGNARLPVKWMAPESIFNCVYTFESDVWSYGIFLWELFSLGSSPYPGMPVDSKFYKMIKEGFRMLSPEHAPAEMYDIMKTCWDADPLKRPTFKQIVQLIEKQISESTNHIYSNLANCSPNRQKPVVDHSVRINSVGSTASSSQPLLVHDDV

Row | inhibition at 10 µM (KIT (V559D)) [%] | remaining binding at 10 µM (KIT (V559D)) [%] | Compound | ratio of immature MCs (CD117 only) to mature MCs (CD117 and FceR1) (mast cells (blood); 5 mg/kg intraperitoneal, p=0.03) | ratio of immature MCs (CD117 only) to mature MCs (CD117 and FceR1) (mast cells (blood); 25 mg/kg intraperitoneal, p=0.04) | total number of mature MCs (CD117+/FceR1+) in the spleen (mast cells (spleen); dose-dependent) | total number of mature MCs (FceR1+) in the spleen (mast cells (spleen); dose-dependent) | ratio of immature MCs (CD117 only) to mature MCs (CD117 and FceR1) in the spleen (mast cells (spleen)) | reduction of gating for mature MCs (CD117+/FceR1+) compared to DMSO (peripheral mast cells) [%] | MTD at 5 days [1] [mg/kg] | ratio of immature MCs (CD117 only) to mature MCs (CD117 and FceR1) (mast cells (blood); 45 mg/kg intraperitoneal, p=0.07)
1 | 99.8 | 0.25 | Cc1cccc(-c2cc3nccc(Nc4ccccc4)c3s2)c1 [BK40143] | significantly increased | – | – | – | – | – | – | –
2 | 99.8 | 0.2 | COc1cccc(Nc2ccnc3cc(-c4cccc(C)c4)sc23)c1 [BK40195] | – | significantly increased | – | – | – | – | – | –
3 | 100 | 0 | Cc1cccc(-c2cc3nccc(Nc4cccc(O)c4)c3s2)c1 [BK40196] | – | – | significantly reduced | significantly reduced | increased | – | – | –

Row | Compound | inhibition at 10 µM (KIT (V559D)) [%] | remaining binding at 10 µM (KIT (V559D)) [%] | ratio of immature MCs (CD117 only) to mature MCs (CD117 and FceR1) (mast cells (blood); 5 mg/kg intraperitoneal, p=0.03) | ratio of immature MCs (CD117 only) to mature MCs (CD117 and FceR1) (mast cells (blood); 25 mg/kg intraperitoneal, p=0.04) | total number of mature MCs (CD117+/FceR1+) in the spleen (mast cells (spleen); dose-dependent) | total number of mature MCs (FceR1+) in the spleen (mast cells (spleen); dose-dependent) | ratio of immature MCs (CD117 only) to mature MCs (CD117 and FceR1) in the spleen (mast cells (spleen)) | reduction of gating for mature MCs (CD117+/FceR1+) compared to DMSO (peripheral mast cells) [%] | MTD at 5 days [1] [mg/kg] | ratio of immature MCs (CD117 only) to mature MCs (CD117 and FceR1) (mast cells (blood); 45 mg/kg intraperitoneal, p=0.07)
4 | Cc1cccc(-c2cc3nccc(N4CCOCC4)c3s2)c1 [BK40197] | 99.7 | 0.35 | – | – | – | – | – | 48 | 50 | significantly increased
